Patent US11753404B2, “Aminothiazole compounds as c-Kit inhibitors” (Ariad Pharmaceuticals, Inc., priority 2016, dated 2023)

Tests used:
Assay in all cases: c-Kit assay: Ba/F3 KIT mutant cell viability (Cell Titer-Glo, 72 hours)
Assay type in all cases: cell-based
Settings in all cases: viability after 72 hours
[1] = target: T1, BAF3 FL KIT EX11DEL/D816H (Homo sapiens, UniProt P10721, D816H, cells depend on it, form not given)
T1 construct: BAF3 FL KIT EX11DEL/D816H
Procedure: (§1) Generation of DBa/F3 KIT Mutant Engineered Cell Lines
(§2) KIT cDNAs were synthesized by GenScript and cloned into the pLVX-IRES-Puro vector (Clontech). Viral particles were produced by transfecting pLVX-IRES-puro vectors containing KIT mutant genes into HEK293 cells (Invitrogen) using the Trans-Lentiviral ORF Packaging Kit (Thermo Scientific). 48 hours post-transfection, virus-containing supernatants were harvested and incubated for another 48-72 hours with parental Ba/F3 cells (DSMZ) in the presence of 10 ng/mL IL-3 (R&D Systems). Transduced Ba/F3 cells were then selected by IL-3 withdrawal and puromycin (0.5-1 μg/mL, Invitrogen).
(§3) Cell lines (e.g., EX11DEL, EX11DEL/D816H, EX11DEL/T670I, and EX11DEL/V654A) were plated into 384 well plates using RPMI 1640 supplemented with 10% FBS at densities that produced linear growth and incubated at 37° C. in 5% (v/v) CO2. Cells were treated with eight concentrations of compound over a 4-fold dilution (10 μM to 0.61 nM) and viability was assessed using Cell Titer-Glo assay (Promega) after 72 hours. Data were plotted as percent viability relative to vehicle-treated cells. Dose-responses curves were generated and used to calculate IC50 values.

[2] = target: T2, BAF3 FL KIT EX11DEL (Homo sapiens, UniProt P10721, cells depend on it, form not given)
T2 construct: BAF3 FL KIT EX11DEL
T2 sequence (P10721 with tags, fused parts or gaps DEL557-558): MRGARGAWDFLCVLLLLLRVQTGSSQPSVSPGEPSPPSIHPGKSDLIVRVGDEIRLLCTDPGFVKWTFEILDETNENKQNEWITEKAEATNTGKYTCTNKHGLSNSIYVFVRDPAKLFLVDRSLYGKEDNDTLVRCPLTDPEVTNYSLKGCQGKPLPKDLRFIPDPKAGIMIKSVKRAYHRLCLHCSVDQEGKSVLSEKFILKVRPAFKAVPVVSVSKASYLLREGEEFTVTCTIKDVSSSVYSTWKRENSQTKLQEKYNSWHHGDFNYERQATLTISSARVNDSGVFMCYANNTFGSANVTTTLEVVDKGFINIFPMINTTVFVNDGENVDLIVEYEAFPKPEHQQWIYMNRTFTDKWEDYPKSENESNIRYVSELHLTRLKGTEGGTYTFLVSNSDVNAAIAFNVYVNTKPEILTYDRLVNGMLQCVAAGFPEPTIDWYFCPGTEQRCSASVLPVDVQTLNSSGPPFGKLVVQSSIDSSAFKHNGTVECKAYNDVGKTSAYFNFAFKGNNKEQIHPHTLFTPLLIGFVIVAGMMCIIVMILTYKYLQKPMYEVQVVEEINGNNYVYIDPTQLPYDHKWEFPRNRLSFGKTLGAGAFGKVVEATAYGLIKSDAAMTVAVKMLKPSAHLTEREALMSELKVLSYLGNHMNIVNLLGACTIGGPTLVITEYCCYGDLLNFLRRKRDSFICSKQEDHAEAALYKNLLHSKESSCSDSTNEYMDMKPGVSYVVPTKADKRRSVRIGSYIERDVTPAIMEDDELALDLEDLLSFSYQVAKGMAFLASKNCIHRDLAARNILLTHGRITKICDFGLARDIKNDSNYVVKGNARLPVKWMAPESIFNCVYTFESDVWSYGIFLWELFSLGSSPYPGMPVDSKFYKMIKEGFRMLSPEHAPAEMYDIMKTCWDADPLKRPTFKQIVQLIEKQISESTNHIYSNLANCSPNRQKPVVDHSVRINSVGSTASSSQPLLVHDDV
Procedure: as §1, §2, §3

[3] = target: T3, BAF3 FL KIT EX11DEL/T670I (Homo sapiens, UniProt P10721, T670I, cells depend on it, form not given)
T3 construct: BAF3 FL KIT EX11DEL/T670I
T3 sequence (P10721 with tags, fused parts or gaps DEL557-558/T670I, form open): as the sequence (P10721 with tags, fused parts or gaps DEL557-558) above, with T668I counted along it
Procedure: as §1, §2, §3

[4] = target: T4, BAF3 FL KIT EX11DEL/V654A (Homo sapiens, UniProt P10721, V654A, cells depend on it, form not given)
T4 construct: BAF3 FL KIT EX11DEL/V654A
T4 sequence (P10721 with tags, fused parts or gaps DEL557-558/V654A, form open): as the sequence (P10721 with tags, fused parts or gaps DEL557-558) above, with V652A counted along it
Procedure: as §1, §2, §3

T1 sequence (P10721 with tags, fused parts or gaps DEL557-558/D816H, form open): as the sequence (P10721 with tags, fused parts or gaps DEL557-558) above, with D814H counted along it

SMILES	GI50 [1] [nM]	GI50 [2] [nM]	GI50 [3] [nM]	GI50 [4] [nM]
Cc1ccc(C(=O)Nc2cc(C(F)(F)F)ccn2)cc1C#Cc1cnc(NC(=O)N(C)C)s1 [I-1, 3-((2-(3,3-dimethylureido)thiazol-5-yl)ethynyl)-4-methyl-N-(4-(trifluoromethyl)pyridin-2-yl)benzamide]	< 10	< 10	< 10	< 10
Cc1ccc(C(=O)Nc2cc(C(F)(F)F)ccn2)cc1C#Cc1cnc(NC(N)=O)s1 [I-2, 4-methyl-N-(4-(trifluoromethyl)pyridin-2-yl)-3-((2-ureidothiazol-5-yl)ethynyl)benzamide]	10 to 50	< 10	< 10	< 10
COC(=O)Nc1ncc(C#Cc2cc(C(=O)Nc3cc(C(F)(F)F)ccn3)ccc2C)s1 [I-3, methyl (5-((2-methyl-5-((4-(trifluoromethyl)pyridin-2-yl)carbamoyl)phenyl)ethynyl)thiazol-2-yl)carbamate]	10 to 50	< 10	10 to 50	10 to 50
CNC(=O)Nc1ncc(C#Cc2cc(C(=O)Nc3cc(C(F)(F)F)ccn3)ccc2C)s1 [I-4, 4-methyl-3-((2-(3-methylureido)thiazol-5-yl)ethynyl)-N-(4-(trifluoromethyl)pyridin-2-yl)benzamide]	< 10	< 10	< 10	10 to 50
COCCNC(=O)Nc1ncc(C#Cc2cc(C(=O)Nc3cc(C(F)(F)F)ccn3)ccc2C)s1 [I-5, 3-((2-(3-(2-methoxyethyl)ureido)thiazol-5-yl)ethynyl)-4-methyl-N-(4-(trifluoromethyl)pyridin-2-yl)benzamide]	10 to 50	< 10	10 to 50	10 to 50
Cc1ccc(C(=O)Nc2cc(C(F)(F)F)ccn2)cc1C#Cc1cnc(NC(=O)NCCN2CCOCC2)s1 [I-6, 4-methyl-3-((2-(3-(2-morpholinoethyl)ureido)thiazol-5-yl)ethynyl)-N-(4-(trifluoromethyl)pyridin-2-yl)benzamide]	10 to 50	< 10	10 to 50	10 to 50
COCCN(C)C(=O)Nc1ncc(C#Cc2cc(C(=O)Nc3cc(C(F)(F)F)ccn3)ccc2C)s1 [I-7, 3-((2-(3-(2-methoxyethyl)-3-methylureido)thiazol-5-yl)ethynyl)-4-methyl-N-(4-(trifluoromethyl)pyridin-2-yl)benzamide]	10 to 50	< 10	< 10	10 to 50
CCN(C)C(=O)Nc1ncc(C#Cc2cc(C(=O)Nc3cc(C(F)(F)F)ccn3)ccc2C)s1 [I-8, 3-((2-(3-ethyl-3-methylureido)thiazol-5-yl)ethynyl)-4-methyl-N-(4-(trifluoromethyl)pyridin-2-yl)benzamide]	< 10	< 10	< 10	10 to 50
Cc1ccc(C(=O)Nc2cc(C(F)(F)F)ccn2)cc1C#Cc1cnc(NC(=O)N(C)CCN(C)C)s1 [I-9, 3-((2-(3-(2-(dimethylamino)ethyl)-3-methylureido)thiazol-5-yl)ethynyl)-4-methyl-N-(4-(trifluoromethyl)pyridin-2-yl)benzamide]	10 to 50	< 10	< 10	10 to 50
Cc1ccc(C(=O)Nc2cc(C(F)(F)F)ccn2)cc1C#Cc1cnc(NC(=O)N(C)CCO)s1 [I-10, 3-((2-(3-(2-hydroxyethyl)-3-methylureido)thiazol-5-yl)ethynyl)-4-methyl-N-(4-(trifluoromethyl)pyridin-2-yl)benzamide]	< 10	< 10	< 10	< 10
Cc1ccc(C(=O)Nc2cc(C(F)(F)F)ccn2)cc1C#Cc1cnc(NC(=O)NCCN(C)C)s1 [I-11, 3-((2-(3-(2-(dimethylamino)ethyl)ureido)thiazol-5-yl)ethynyl)-4-methyl-N-(4-(trifluoromethyl)pyridin-2-yl)benzamide]	10 to 50	< 10	10 to 50	10 to 50
Cc1ccc(C(=O)Nc2cc(C(F)(F)F)ccn2)cc1C#Cc1cnc(NC(=O)NCCN2CCCC2)s1 [I-12, 4-methyl-3-((2-(3-(2-(pyrrolidin-1-yl)ethyl)ureido)thiazol-5-yl)ethynyl)-N-(4-(trifluoromethyl)pyridin-2-yl)benzamide]	10 to 50	< 10	50 to 100	50 to 100
Cc1ccc(C(=O)Nc2cc(C(F)(F)F)ccn2)cc1C#Cc1cnc(NC(=O)NCC2CCN(C)CC2)s1 [I-13, 4-methyl-3-((2-(3-((1-methylpiperidin-4-yl)methyl)ureido)thiazol-5-yl)ethynyl)-N-(4-(trifluoromethyl)pyridin-2-yl)benzamide]	10 to 50	< 10	10 to 50	10 to 50
Cc1ccc(C(=O)Nc2cc(C(F)(F)F)ccn2)cc1C#Cc1cnc(NC(=O)NCCN2CCN(C)CC2)s1 [I-14, 4-methyl-3-((2-(3-(2-(4-methylpiperazin-1-yl)ethyl)ureido)thiazol-5-yl)ethynyl)-N-(4-(trifluoromethyl)pyridin-2-yl)benzamide]	10 to 50	< 10	10 to 50	10 to 50
Cc1ccc(C(=O)Nc2cc(C(F)(F)F)ccn2)cc1C#Cc1cnc(NC(=O)NCC(C)(C)O)s1 [I-15, 3-((2-(3-(2-hydroxy-2-methylpropyl)ureido)thiazol-5-yl)ethynyl)-4-methyl-N-(4-(trifluoromethyl)pyridin-2-yl)benzamide]	10 to 50	< 10	10 to 50	10 to 50
Cc1ccc(C(=O)Nc2cc(C(F)(F)F)ccn2)cc1C#Cc1cnc(NC(=O)N(C)CCN2CCN(C)CC2)s1 [I-16, 4-methyl-3-((2-(3-methyl-3-(2-(4-methylpiperazin-1-yl)ethyl)ureido)thiazol-5-yl)ethynyl)-N-(4-(trifluoromethyl)pyridin-2-yl)benzamide]	10 to 50	< 10	< 10	10 to 50
Cc1ccc(C(=O)Nc2cc(C(F)(F)F)ccn2)cc1C#Cc1cnc(NC(=O)NC2CC2)s1 [I-17, 3-((2-(3-cyclopropylureido)thiazol-5-yl)ethynyl)-4-methyl-N-(4-(trifluoromethyl)pyridin-2-yl)benzamide]	10 to 50	< 10	10 to 50	10 to 50
Cc1ccc(NC(=O)c2cc(C(F)(F)F)ccn2)cc1C#Cc1cnc(NC(=O)N(C)C2CCN(C)CC2)s1 [I-53, N-(4-methyl-3-((2-(3-methyl-3-(I-methylpiperidin-4-yl)ureido)thiazol-5-yl)ethynyl)phenyl)-4-(trifluoromethyl)picolinamide]	10 to 50	–	50 to 100	10 to 50
Cc1ccc(NC(=O)c2cc(C(F)(F)F)ccn2)cc1C#Cc1cnc(NC(=O)N(C)CCN2CCN(C)CC2)s1 [I-55, N-(4-methyl-3-((2-(3-methyl-3-(2-(4-methylpiperazin-1-yl)ethyl)ureido)thiazol-5-yl)ethynyl)phenyl)-4-(trifluoromethyl)picolinamide]	10 to 50	–	50 to 100	10 to 50
